Results published in the NIST ThermoML archive (doi:10.1016/j.fluid.2005.07.009).
± gives the expanded uncertainty stated by the source.

Tests used:
[1] = Molar enthalpy of transition or fusion; conditions: DSC
[2] = DTA
[3] = molar heat capacity at constant pressure; conditions: 101.33 kPa, Small sample (50 mg) DSC

NCCCN [1,3-propanediamine]
Crystal 1
Conditions	Molar enthalpy of transition or fusion [kcal/mol]	Triple point temperature [K]
[1]	5.34 ± 0.158	–
[2]	–	262.19 ± 0.5

[3]
Conditions	molar heat capacity at constant pressure [J/K/mol]
210.17 K, Crystal 2	95.15 ± 1.9
211.63 K, Crystal 2	98.6 ± 2
212.38 K, Crystal 2	99.24 ± 2
213.45 K, Crystal 2	100.56 ± 2
214.52 K, Crystal 2	101.65 ± 2
215.39 K, Crystal 2	102.15 ± 2
216.89 K, Crystal 2	102.21 ± 2
217.39 K, Crystal 2	102.47 ± 2
218.2 K, Crystal 2	103.01 ± 2.1
219.56 K, Crystal 2	103.15 ± 2.1
220.98 K, Crystal 2	103.33 ± 2.1
221.6 K, Crystal 2	104.53 ± 2.1
222.57 K, Crystal 2	105.45 ± 2.1
223.61 K, Crystal 2	106.47 ± 2.1
224.16 K, Crystal 2	106.75 ± 2.1
225.7 K, Crystal 2	106.91 ± 2.1
226.44 K, Crystal 2	107.67 ± 2.1
226.87 K, Crystal 2	108.07 ± 2.2
228.09 K, Crystal 2	108.1 ± 2.2
229.51 K, Crystal 2	108.47 ± 2.2
230.13 K, Crystal 2	109.74 ± 2.2
231.59 K, Crystal 2	110.88 ± 2.2
232.5 K, Crystal 2	111.31 ± 2.2
233.79 K, Crystal 2	111.43 ± 2.2
234.58 K, Crystal 2	113.62 ± 2.3
235.36 K, Crystal 2	115.41 ± 2.3
237.9 K, Crystal 2	116.57 ± 2.3
238.39 K, Crystal 2	116.7 ± 2.3
239.37 K, Crystal 2	117.02 ± 2.3
240.41 K, Crystal 2	119.05 ± 2.4
269.31 K, Liquid	200.32 ± 4
271.34 K, Liquid	200.44 ± 4
273.29 K, Liquid	200.87 ± 4
275.36 K, Liquid	200.94 ± 4
277.41 K, Liquid	201.41 ± 4
279.63 K, Liquid	201.51 ± 4
281.55 K, Liquid	201.82 ± 4
283.37 K, Liquid	202.03 ± 4
285.47 K, Liquid	202.29 ± 4
287.35 K, Liquid	202.53 ± 4
289.23 K, Liquid	202.79 ± 4.1
291.28 K, Liquid	203.12 ± 4.1
293.27 K, Liquid	203.44 ± 4.1
295.53 K, Liquid	204.02 ± 4.1
297.16 K, Liquid	204.35 ± 4.1
299.44 K, Liquid	204.4 ± 4.1
302.13 K, Liquid	204.56 ± 4.1
304.68 K, Liquid	204.87 ± 4.1
306.46 K, Liquid	204.95 ± 4.1
308.51 K, Liquid	205.44 ± 4.1
310.56 K, Liquid	205.49 ± 4.1
312.42 K, Liquid	205.78 ± 4.1
315.65 K, Liquid	206.16 ± 4.1
317.6 K, Liquid	206.28 ± 4.1
320.27 K, Liquid	206.67 ± 4.1
322.36 K, Liquid	206.76 ± 4.1
325.51 K, Liquid	207.27 ± 4.2
327.54 K, Liquid	207.43 ± 4.2
330.44 K, Liquid	207.85 ± 4.2
333.46 K, Liquid	207.99 ± 4.2

CCCCCCCCN [1-octanamine]
Conditions	Molar enthalpy of transition or fusion [kcal/mol]
[1], Crystal	8.3 ± 0.232

[3]
Conditions	molar heat capacity at constant pressure [J/K/mol]
214.08 K, Crystal	167.97 ± 3.4
215.55 K, Crystal	170.58 ± 3.4
217.65 K, Crystal	171.84 ± 3.4
218.54 K, Crystal	174.15 ± 3.5
220.18 K, Crystal	175.59 ± 3.5
221.56 K, Crystal	175.94 ± 3.5
223.07 K, Crystal	176.5 ± 3.5
224.56 K, Crystal	177.92 ± 3.6
226.18 K, Crystal	179.15 ± 3.6
227.54 K, Crystal	180.21 ± 3.6
229.16 K, Crystal	180.94 ± 3.6
230.51 K, Crystal	183.42 ± 3.7
232.12 K, Crystal	185.1 ± 3.7
233.53 K, Crystal	186.36 ± 3.7
235.26 K, Crystal	187 ± 3.7
236.54 K, Crystal	188.74 ± 3.8
238.13 K, Crystal	189.62 ± 3.8
239.53 K, Crystal	191.53 ± 3.8
241.11 K, Crystal	193.65 ± 3.9
242.56 K, Crystal	195.03 ± 3.9
244.04 K, Crystal	196.53 ± 3.9
245.1 K, Crystal	197.38 ± 4
246.25 K, Crystal	197.77 ± 4
247.23 K, Crystal	198.38 ± 4
248.63 K, Crystal	203.31 ± 4.1
249.05 K, Crystal	203.59 ± 4.1
249.65 K, Crystal	203.61 ± 4.1
251.8 K, Crystal	204.04 ± 4.1
252.23 K, Crystal	204.62 ± 4.1
253.02 K, Crystal	206.62 ± 4.1
295.09 K, Liquid	304.31 ± 6.1
295.53 K, Liquid	304.33 ± 6.1
296.13 K, Liquid	304.35 ± 6.1
296.41 K, Liquid	304.94 ± 6.1
297.1 K, Liquid	304.99 ± 6.1
297.32 K, Liquid	305.36 ± 6.1
298.16 K, Liquid	305.42 ± 6.1
298.58 K, Liquid	305.98 ± 6.1
299.02 K, Liquid	306.08 ± 6.1
299.35 K, Liquid	306.45 ± 6.1
300.13 K, Liquid	306.53 ± 6.1
300.53 K, Liquid	306.69 ± 6.1
301.18 K, Liquid	307.19 ± 6.1
301.52 K, Liquid	307.31 ± 6.2
302.16 K, Liquid	307.33 ± 6.2
302.56 K, Liquid	307.36 ± 6.2
303.28 K, Liquid	307.81 ± 6.2
303.51 K, Liquid	308.08 ± 6.2
304.44 K, Liquid	308.1 ± 6.2
304.71 K, Liquid	308.11 ± 6.2
304.99 K, Liquid	308.47 ± 6.2
305.64 K, Liquid	308.51 ± 6.2
306.11 K, Liquid	308.52 ± 6.2
306.59 K, Liquid	308.6 ± 6.2
307.38 K, Liquid	308.63 ± 6.2
307.5 K, Liquid	308.83 ± 6.2
308.05 K, Liquid	308.92 ± 6.2
308.54 K, Liquid	309.05 ± 6.2
309.16 K, Liquid	309.12 ± 6.2
309.24 K, Liquid	309.24 ± 6.2
310.24 K, Liquid	309.3 ± 6.2
310.53 K, Liquid	309.35 ± 6.2
311.07 K, Liquid	309.39 ± 6.2
311.51 K, Liquid	310.16 ± 6.2
312.64 K, Liquid	310.21 ± 6.2
313.22 K, Liquid	310.76 ± 6.2

CCCCCCCCCCCO [1-undecanol]
Crystal
Conditions	Molar enthalpy of transition or fusion [kcal/mol]	Triple point temperature [K]
[1]	7.31 ± 0.206	–
[2]	–	289.63 ± 0.5

[3]
Conditions	molar heat capacity at constant pressure [J/K/mol]
208.41 K, Crystal	193.11 ± 3.9
209.57 K, Crystal	193.3 ± 3.9
210.11 K, Crystal	194.69 ± 3.9
211.02 K, Crystal	194.71 ± 3.9
212.12 K, Crystal	196.33 ± 3.9
213.87 K, Crystal	198.62 ± 4
214.48 K, Crystal	201.14 ± 4
215.51 K, Crystal	201.98 ± 4
216.84 K, Crystal	205.69 ± 4.1
217.02 K, Crystal	206.89 ± 4.1
218.35 K, Crystal	208.79 ± 4.2
219.08 K, Crystal	211.05 ± 4.2
220.29 K, Crystal	213.58 ± 4.3
221.74 K, Crystal	215.54 ± 4.3
222.1 K, Crystal	216.27 ± 4.3
223.31 K, Crystal	218.06 ± 4.4
224.39 K, Crystal	219.4 ± 4.4
225.72 K, Crystal	221.14 ± 4.4
226.26 K, Crystal	221.42 ± 4.4
227.04 K, Crystal	223.37 ± 4.5
228.49 K, Crystal	225.69 ± 4.5
229.28 K, Crystal	228.09 ± 4.6
230 K, Crystal	228.5 ± 4.6
231.02 K, Crystal	229.81 ± 4.6
232.16 K, Crystal	232.96 ± 4.7
233.13 K, Crystal	234.38 ± 4.7
234.75 K, Crystal	235.74 ± 4.7
235.83 K, Crystal	237.03 ± 4.7
236.92 K, Crystal	238.89 ± 4.8
237.34 K, Crystal	238.93 ± 4.8
238.6 K, Crystal	239.94 ± 4.8
239.8 K, Crystal	239.99 ± 4.8
241.66 K, Crystal	243.63 ± 4.9
243.34 K, Crystal	245.99 ± 4.9
244.18 K, Crystal	246.89 ± 4.9
246.11 K, Crystal	250.54 ± 5
297.08 K, Liquid	405.86 ± 8.1
298.17 K, Liquid	407.32 ± 8.2
299.23 K, Liquid	408.96 ± 8.2
300.25 K, Liquid	409.93 ± 8.2
301.38 K, Liquid	411.68 ± 8.2
302.21 K, Liquid	412.61 ± 8.2
303.18 K, Liquid	413.77 ± 8.3
304.11 K, Liquid	414.87 ± 8.3
305.18 K, Liquid	415.8 ± 8.3
306.27 K, Liquid	417.37 ± 8.3
307.49 K, Liquid	418.89 ± 8.4
308.58 K, Liquid	419.76 ± 8.4
309.32 K, Liquid	421.18 ± 8.4
310.02 K, Liquid	422.07 ± 8.4
311.09 K, Liquid	423.23 ± 8.5
312.51 K, Liquid	425.11 ± 8.5
313.48 K, Liquid	426.38 ± 8.5
314.66 K, Liquid	427.93 ± 8.6
315.71 K, Liquid	429.81 ± 8.6
316.18 K, Liquid	430 ± 8.6
318.29 K, Liquid	432.46 ± 8.7
320.24 K, Liquid	435.26 ± 8.7
321.15 K, Liquid	436.27 ± 8.7
323.33 K, Liquid	439.56 ± 8.8

CCCCCCCCCCO [decan-1-ol]
Crystal
Conditions	Molar enthalpy of transition or fusion [kcal/mol]	Triple point temperature [K]
[1]	7.5 ± 0.213	–
[2]	–	278.67 ± 0.5

[3]
Conditions	molar heat capacity at constant pressure [J/K/mol]
215.12 K, Crystal	224.54 ± 4.5
216.09 K, Crystal	227.81 ± 4.6
217.28 K, Crystal	228.07 ± 4.6
218.46 K, Crystal	228.68 ± 4.6
219.05 K, Crystal	228.9 ± 4.6
219.59 K, Crystal	229.05 ± 4.6
222.22 K, Crystal	229.19 ± 4.6
222.81 K, Crystal	230.27 ± 4.6
223.03 K, Crystal	230.39 ± 4.6
226.41 K, Crystal	231.18 ± 4.6
227.05 K, Crystal	232.61 ± 4.7
229.62 K, Crystal	232.81 ± 4.7
230.15 K, Crystal	233.54 ± 4.7
231.71 K, Crystal	234.37 ± 4.7
232.3 K, Crystal	234.76 ± 4.7
233.74 K, Crystal	235.5 ± 4.7
234.54 K, Crystal	235.92 ± 4.7
235.82 K, Crystal	237.25 ± 4.8
236.3 K, Crystal	237.29 ± 4.8
237.11 K, Crystal	238.88 ± 4.8
238.28 K, Crystal	239.81 ± 4.8
239.94 K, Crystal	240.28 ± 4.8
240.47 K, Crystal	240.35 ± 4.8
241.16 K, Crystal	241 ± 4.8
242.71 K, Crystal	241.58 ± 4.8
244.15 K, Crystal	244.94 ± 4.9
246.13 K, Crystal	245.49 ± 4.9
248.85 K, Crystal	245.75 ± 4.9
249.22 K, Crystal	246.47 ± 4.9
250.88 K, Crystal	247.17 ± 4.9
251.14 K, Crystal	247.6 ± 5
252.58 K, Crystal	250.51 ± 5
253.49 K, Crystal	252.9 ± 5.1
284.18 K, Liquid	357.16 ± 7.1
285.11 K, Liquid	357.65 ± 7.2
286.23 K, Liquid	359.66 ± 7.2
287.17 K, Liquid	360.07 ± 7.2
288.21 K, Liquid	361.72 ± 7.2
289.63 K, Liquid	363.32 ± 7.3
290.29 K, Liquid	363.87 ± 7.3
291.08 K, Liquid	364.63 ± 7.3
292.13 K, Liquid	366.29 ± 7.3
293.23 K, Liquid	366.99 ± 7.3
294.29 K, Liquid	368.16 ± 7.4
295.69 K, Liquid	369.19 ± 7.4
296.43 K, Liquid	370.09 ± 7.4
297.49 K, Liquid	370.33 ± 7.4
298.55 K, Liquid	373 ± 7.5
299.51 K, Liquid	374.14 ± 7.5
300.21 K, Liquid	375.31 ± 7.5
301.18 K, Liquid	375.74 ± 7.5
302.45 K, Liquid	377.89 ± 7.6
304.22 K, Liquid	380.22 ± 7.6
305.31 K, Liquid	381.17 ± 7.6
306.42 K, Liquid	382.5 ± 7.7
307.18 K, Liquid	383.77 ± 7.7
308.14 K, Liquid	384.86 ± 7.7

CCCCCCCCCO [nonan-1-ol]
Crystal
Conditions	Molar enthalpy of transition or fusion [kcal/mol]	Triple point temperature [K]
[1]	5.87 ± 0.17	–
[2]	–	268.1 ± 0.5

CCCCCCCCO [octan-1-ol]
Conditions	Triple point temperature [K]
[2], Crystal	258.03 ± 0.5
